Assay results from patent US20230193262A1, “Nucleic acid molecules capable of modulating target gene expression and uses thereof” (KOREA ADVANCED INSTITUTE OF SCIENCE AND TECHNOLOGY, priority 2021, published 2023).
“Also recorded” adds a separate entry of the source. In the oligonucleotide strings, read from the 5' end, every base follows the letter of its sugar. An asterisk marks phosphorothioate; unmarked linkages are phosphodiester. Other units and linkages are bracketed, terminal groups are in braces. A string of capitals states the bases alone. d = 2'-deoxy (DNA)

Key:
miR-155 = miR-155 expression after treatment with AML therapeutic agents; assay type: cell-based; conditions: FLT3-ITD mutated AML cell line (NOLM-14); IC50 dose, 37° C., 72 hours
Protocol: The FLT3-ITD mutated AML cell line (NOLM-14) was treated with an IC50 dose of cytarabine, azacitidine, decitabine, venetoclax, or gilteritinib, which is used as standard therapeutic agents for AML, at 37° C. for 72 hours, followed by measuring expression levels of miR-155.

Hela cells = experiment: Cell viability / apoptosis (CCK-8) in Hela cells; assay type: cell-based
Protocol: (§1) The miRNA triggers were assayed for cytotoxicity and apoptosis induction, using the CCK-8 (Cell Counting Kit-8) (Dojindo, Kumamoto, Japan) according to the manufacturer's instruction. Cells were incubated in 96-well plates (5×10^3 cells/well) at 37° C. for 24 hours under a 5% CO2 atmosphere, followed by transfection. Three days after transfection, the medium was removed. A 10-fold dilution of CCK-8 solution in DMEM was added to the cells which were then incubated at 37° C. for 2 hours. After incubation, absorbance was read at 450 nm on Tecan Infinite M200 pro microplate reader (Mnnedorf, Switzerland).
(§2) The linear miRNA triggers or siRNAs (siLuc and siMcl-1) prepared above were transfected into Hela, Hela-141, and Hela-200c cells which were then measured for cell viability. The results are depicted in FIG. 15.
(§3) The hairpin miRNA triggers prepared above were transfected into Hela and Hela-141 cells which were then assayed for apoptosis. As a control, the siRNA (siMcl-1; Table 14) which can repress the expression of mcl-1 was transfected to Hela and Hela-141 cells and measured for apoptotic activity.

Hela-141 cells = experiment: Cell viability / apoptosis (CCK-8) in Hela-141 cells; assay type: cell-based; conditions: for apoptosis induced: Hela-141 cells (express miR-141); for apoptosis / cell viability: Hela-141 cells
Protocol: as §1, §2, §3

cells = experiment: Cytotoxicity (CCK-8 cell viability) of chemically modified miRNA triggers; assay type: cell-based
Protocol: as §1
In addition, FPS HP and 2′-OMe HP, which were the most resistant to degradation in biological samples, were analyzed for cytotoxicity. In this regard, the HP in which the entire nucleotides of miRNA trigger (LP) were modified with PS (expressed as PS in Table 6 and FIG. 6), the linear probe in which the entire nucleotides of miRNA trigger (LP) were modified with 2′-O-Me (expressed as 2′O-me in Table 6 and FIG. 6), the control DNA LP (expressed as DNA in Table 6 and FIG. 6), or siRNA was transfected into cells which were then measured for cell viability using the method of Reference Example 9. The result is depicted in FIG. 6. […]

Hela-200c cells = experiment: Cell viability / apoptosis (CCK-8) in Hela-200c cells; assay type: cell-based
Protocol: as §1, §2

[1] = tested on: MCF-7 breast cancer cells; experiment: Cell viability / apoptosis in MCF-7; assay type: cell-based; conditions: single siRNA, final concentration 60 nM
Protocol: as §1
An siRNA targeting bcl-2, bcl-xL, or mcl-1 was transfected into MCF-7 breast cancer cells and PANC-1 pancreatic cancer cells. By using qRT-PCR, establishment was made of a condition under which the expression of each target gene is decreased by 80% or more (transfection was performed at a concentration of 60 nM with the aid of Lipofectamine). As a negative control, a Luc (Luciferase)-targeting siRNA (siLuc) was used. Under the same condition of decreasing the expression of each target gene by 80% or more, the cells transfected with the siRNAs were measured for apoptosis, and the results are depicted in FIGS. 14a and 14b.
Linear miRNA triggers that could bind to miR-141 or let7f and target bcl-xL or mcl-1 were prepared and transfected alone or in combination into the breast cancer cell line MCF-7 which was then measured for cell viability. Every nucleotide of the triggers and controls was chemically modified with 2′-OMe.
First, MCF-7 was measured for cell viability after treatment with siMCL-1, siBCL-xL, and siBCL-2 (FIG. 48). […] The final concentration of the siRNAs was 60 nM.
Next, examination was made of the apoptosis when two or more genes were regulated together. MCF-7 was measured for cell viability after treatment with siMCL-1+siBCL-xL, siMCL-1+siBCL-2, siBCL-xL+siBCL-2, and siMCL-1+siBCL-xL+siBCL-2 (FIG. 49).
Finally, experiments under all the conditions (individual and simultaneous regulation) were conducted simultaneously so as to compare effects thereof. […]

GFP mRNA = experiment: GFP fluorescence intensity in GFP-expressing Hela-141 cells; assay type: cell-based; conditions: siGFP compared to siLuc, trigger 30 to 60 nM
Text: A GFP fluorescent protein-expressing plasmid (used in Chen L L, DeCerbo J N, Carmichael G G. 2008. Alu element-mediated gene silencing. EMBO J 27: 1694-1705) was transfected into Hela-141 cells to prepare GFP-expressing Hela-141 cells. As stated in Reference Example 1, a linear miRNA trigger (LP; GFP_141_141), which can target GFP mRNA (=complementarily bind to GFP mRNA to regulate the expression of GFP) and complementarily bind to miR-141, and siRNAs which target GFP and Luc (Luciferase), respectively, were synthesized in Bioneer Inc. Sequences of the LP and siRNAs and types and positions of chemical modifications in each sequence are listed in Table 8, below.
Above all, siLuc and siGFP were transfected into the GFP-expressing Hela-141 cells which were then measured for fluorescence intensity on an ELISA reader. […] In addition, the linear miRNA trigger (GFP(1)_141_141) was transfected into the GFP-expressing Hela-141 cells which were then measured for fluorescence intensity. The result is depicted in FIG. 8. For the transfection, the GFP plasmid and GFP_141_141 were used at a concentration of 0.5 to 1 μg/ml and 30 to 60 nM, respectively.

[2] = tested on: miRNA-141 and PKR mRNA (2); experiment: PAGE binding of dumbbell miRNA trigger to miRNA and target mRNA; conditions: for binding to miRNA and/or target mRNA: 100 nM each, 37° C., 1 hour, miRNA present
Protocol: To a buffer (1×PBS buffer, +5 mM MgCl2, 137 mM NaCl, 10 mM PO4, 2.7 mM KCl, 5 mM MgCl2; pH 7.4) containing 100 nM of the dumbbell miRNA trigger (DP) prepared above, 100 nM miRNA and/or 100 nM target mRNA was added, followed by incubation at 37° C. for 1 hour. Each sample was loaded to a PAGE gel and run. The results are depicted in FIG. 39b.

## Nc1ncn([C@@H]2O[C@H](CO)[C@@H](O)[C@H]2O)c(=O)n1 [azacitidine]
miR-155
  miR-155 expression: did not repress miR-155 express

## HP Mcl-1(1)_141: hairpin miRNA trigger binding miR-141 and targeting mcl-1; SEQ ID NO 67 (GCUACGUAGUUCGGCCAUCUUUACCAGACAGUGUUACCGAACUACGUAGC; all 2'-O-methyl, backbone not given here)
Hela cells
  apoptosis / cell viability: did not lead Hela cells to death at all
Hela-141 cells
  apoptosis induced: about 40%

## Nc1ccn([C@@H]2O[C@H](CO)[C@@H](O)[C@@H]2O)c(=O)n1 [cytarabine]
miR-155
  miR-155 expression: did not repress miR-155 express

## 2′-O-Me: linear probe, entire nucleotides modified with 2′-O-Me; SEQ ID NO 38 (UCGAAGUACUCAGCGUAAGUUCGAAGUACUCAGCGUAAGUUCGAAGUACUCAGCGUAAGU; all 2'-O-methyl, backbone not given here)
cells; CCK-8
  cell viability versus non-transfected negative control (NT): not significantly different in viability from the negative control

## HP Mcl-1(3)_141: hairpin miRNA trigger binding miR-141 and targeting mcl-1; SEQ ID NO 68 (CGAAGGAAGUAUCGCCAUCUUUACCAGACAGUGUUACGAUACUUCCUUCG; all 2'-O-methyl, backbone not given here)
Hela cells
  apoptosis / cell viability: did not lead Hela cells to death at all
Hela-141 cells
  apoptosis induced: about 40%

## Mcl-1-200c-200c: linear miRNA trigger binding miR-200c and targeting mcl-1; SEQ ID NO 66 (Table 25: 111) (UCCAUCAUUACCGCGCAGUAUUAUCCAUCAUUACCGCGCAGUAUUACCGAACUACGUAGC; all 2'-O-methyl, backbone not given here)
Hela-141 cells
  apoptosis / cell viability: no significant influence on cell viability
Hela-200c cells
  apoptosis induced: up to 40%

## PS: miRNA trigger (LP), entire nucleotides modified with PS, random sequences; SEQ ID NO 37 (dT*dC*dG*dA*dA*dG*dT*dA*dC*dT*dC*dA*dG*dC*dG*dT*dA*dA*dG*dT*dT*dC*dG*dA*dA*dG*dT*dA*dC*dT*dC*dA*dG*dC*dG*dT*dA*dA*dG*dT*dT*dC*dG*dA*dA*dG*dT*dA*dC*dT*dC*dA*dG*dC*dG*dT*dA*dA*dG*dT)
cells; transfected cells, CCK-8, random sequences
  cell viability: less than 40%

## siMcl-1: siRNA targeting mcl-1; SEQ ID NO 64 (AAAUUCGAUACUUCCUUCG; listed as RNA, chemistry not given here) [reference compound]
Hela cells
  apoptosis / cell viability: induced apoptosis; also recorded: apoptotic effect
Hela-141 cells
  apoptosis / cell viability: induced apoptosis; also recorded: apoptotic effect
Hela-200c cells
  apoptosis / cell viability: induced apoptosis
[1]
  apoptosis (cell viability): apoptosis was detected; also recorded: greatest apoptosis

## siBcl-xL: siRNA targeting bcl-xL; SEQ ID NO 63 (UUGGUCCCUCAGUAUGGUC; listed as RNA, chemistry not given here)
[1]
  apoptosis (cell viability): apoptosis was detected

## siGFP: siRNA which targets GFP; SEQ ID NO 44 (UUAUGUUUCAGGUUCAGGG; RNA, backbone not given here) [reference compound]
GFP mRNA
  GFP fluorescence intensity: significantly reduced fluorescence intensity

B1: GFP(1)_141_141: linear miRNA trigger targeting GFP mRNA and binding miR-141; SEQ ID NO 41 (nucleic acid)
chain: CCAUCUUUACCUCACAGUGUUACCAUCUUUACCUCACAGUGUUAUUAUGUUUCAGGUUCAGGGGGA
modifications: all 2'-O-methyl, backbone not given here
GFP mRNA
  GFP fluorescence intensity: reduced GFP fluorescence intensity in a dose-dependent manner

B2: dumbbell miRNA trigger: dumbbell-shaped miRNA trigger, mRNA-binding portion about 20 nt, C12 spacer; SEQ ID NO 130 (nucleic acid)
chain: CCCCCCGAATGAGAAATACCATCTTTACCAGACAGTGTTATATTTCTCATTCCCTTCCTTNNAAGGAAGGGGGGGG
modifications: C12 spacer, chemistry not fully specified
[2]
  binding to miRNA and/or target mRNA: could bind to a miRNA and/or target mRNA only in the presence of the miRNA
[2]; listed as DB HP
  binding to miRNA and/or target mRNA: opened its structure and formed a ternary complex
[2]; absence of the miRNA
  binding to target mRNA: did not bind to a target mRNA in the absence of the miRNA
